The structures appear in SMILES notation. pIC50: −log10 of the molar value.

What is called pIC50 is the negative decadic logarithm of the IC50, by convention in mol/L.

The target in this experiment is BRD4 (Homo sapiens, UniProt O60885). As to the kind of experiment: Time resolved fluorescence resonance energy transfer (TR-FRET) binding assay, bromodomain BRD4. As to conditions: one of the FRET assays described; read-out: FRET BRD4 IC50.
For `Cc1nnn(C)c1-c1cnc2c3c(S(C)(=O)=O)ncc(Cl)c3n([C@H](c3ccccc3)C3CCOCC3)c2c1` [Example 42, 10-Chloro-5-(dimethyl-1H-1,2,3-triazol-5-yl)-13-methanesulfonyl-8-[(S)-oxan-4-yl(phenyl)methyl]-3,8,12-triazatricyclo[7.4.0.0^2,^7]trideca-1(13),2(7),3,5,9,11-hexaene], the pIC50 is above 8.00.
Regarding `[2H]C([2H])([2H])c1nnn(C)c1-c1cnc2c3c(OC)nc(Cl)cc3n([C@H](c3ncccc3F)C3CCOCC3)c2c1` [Example 305, 11-Chloro-8-[(S)-(3-fluoropyridin-2-yl)(oxan-4-yl)methyl]-13-methoxy-5-[4-(^2H3)methyl-1-methyl-1H-1,2,3-triazol-5-yl]-3,8,12-triazatricyclo[7.4.0.0^2,^7]trideca-1(9),2(7),3,5,10,12-hexaene], the pIC50 is above 8.00.
On to `Cc1nnn(C)c1-c1cnc2c3ccc([S+](C)[O-])nc3n([C@H](c3ccccc3)C3CCOCC3)c2c1` (stereo partly drawn) [Example 200, 5-(Dimethyl-1H-1,2,3-triazol-5-yl)-11-methanesulfinyl-8-[(S)-oxan-4-yl(phenyl)methyl]-3,8,10-triazatricyclo[7.4.0.0^2,^7]trideca-1(9),2(7),3,5,10,12-hexaene], for which the pIC50 is above 8.00.
For the compound `[2H]C([2H])([2H])c1nnn(C)c1-c1cnc2c3c(OC)ncc(S(C)(=O)=O)c3n(C(c3ncccc3F)C3CCOCC3)c2c1` (centres unmarked) [Example 65, 8-[(3-Fluoropyridin-2-yl)(oxan-4-yl)methyl]-10-methanesulfonyl-13-methoxy-5-[4-(^2H3)methyl-1-methyl-1H-1,2,3-triazol-5-yl]-3,8,12-triazatricyclo[7.4.0.0^2,^7]trideca-1(13),2(7),3,5,9,11-hexaene], the negative-log IC50 (pIC50) was above 5.82.
For `[2H]C([2H])([2H])c1nnn(C)c1-c1cnc2c3c(N(C)CC)nccc3n([C@H](c3ccccc3)C3CCOCC3)c2c1` [Example 132, N-Ethyl-N-methyl-5-[4-(^2H3)methyl-1-methyl-1H-1,2,3-triazol-5-yl]-8-[(S)-oxan-4-yl(phenyl)methyl]-3,8,12-triazatricyclo[7.4.0.0^2,^7]trideca-1(13),2(7),3,5,9,11-hexaen-13-amine] the value was above 9.00; for `Cc1nnn(C)c1-c1cnc2c3ccc(-c4c(C)nnn4C)nc3n([C@H](c3ccccc3F)C3CCOCC3)c2c1` [Example 227, 5,11-Bis(dimethyl-1H-1,2,3-triazol-5-yl)-8-[(S)-(2-fluorophenyl)(oxan-4-yl)methyl]-3,8,10-triazatricyclo[7.4.0.0^2,^7]trideca-1(13),2(7),3,5,9,11-hexaene], above 9.00; for `Cc1nnn(C)c1-c1cnc2c3ccc(Cl)nc3n([C@H](c3ccccc3F)C3CCOCC3)c2c1` [Example 226, 11-Chloro-5-(dimethyl-1H-1,2,3-triazol-5-yl)-8-[(S)-(2-fluorophenyl)(oxan-4-yl)methyl]-3,8,10-triazatricyclo[7.4.0.0^2,^7]trideca-1(13),2(7),3,5,9,11-hexaene], above 8.00.
As to `Cc1nnn(C)c1-c1cnc2c3ccc(NC(=O)C(C)C)nc3n([C@H](c3ccccc3F)C3CCOCC3)c2c1` [Example 275, N-[5-(Dimethyl-1H-1,2,3-triazol-5-yl)-8-[(S)-(2-fluorophenyl)(oxan-4-yl)methyl]-3,8,10-triazatricyclo[7.4.0.0^2,^7]trideca-1(13),2(7),3,5,9,11-hexaen-11-yl]-2-methylpropanamide], the pIC50 was above 8.00.
For the compound `Cc1nnn(C)c1-c1cnc2c3cnc(C(C)(C)O)cc3n([C@H](c3ncccc3F)C3CCOCC3)c2c1` [Example 339], the pIC50 is above 8.00.
For the compound `[2H]C([2H])([2H])c1nnn(C)c1-c1cnc2c3c(OC)ncc(S(C)(=O)=O)c3n(C(c3cccc(F)c3)C3CCOCC3)c2c1` (single isomer, unassigned) [Example 87, 8-[(3-Fluorophenyl)(oxan-4-yl)methyl]-10-methanesulfonyl-13-methoxy-5-[4-(^2H3)methyl-1-methyl-1H-1,2,3-triazol-5-yl]-3,8,12-triazatricyclo[7.4.0.0^2,^7]trideca-1(13),2(7),3,5,9,11-hexaene], the negative logarithm of the IC50 (pIC50) was above 5.82.
Take `Cc1nnn(C)c1-c1cnc2c3ccc(S(=O)(=O)N4CCOCC4)nc3n([C@H](c3ccccc3)C3CCOCC3)c2c1` [Example 197, 5-(Dimethyl-1H-1,2,3-triazol-5-yl)-11-(morpholine-4-sulfonyl)-8-[(S)-oxan-4-yl(phenyl)methyl]-3,8,10-triazatricyclo[7.4.0.0^2,^7]trideca-1(9),2(7),3,5,10,12-hexaene]: the negative-log IC50 (pIC50) was above 8.00.
As to `Cc1noc(C)c1-c1cnc2c3cnc(C(C)(C)O)cc3n([C@H](c3ncccc3F)C3CCOCC3)c2c1` [Example 338], the pIC50 is above 8.00.
In the case of `CC(=O)c1cnc2c3ccc(-c4c(C)nnn4C)nc3n([C@@H](c3ccccc3)C3CCOCC3)c2c1` [Example 377, 1-[11-(Dimethyl-1H-1,2,3-triazol-5-yl)-8-[(R)-oxan-4-yl(phenyl)methyl]-3,8,10-triazatricyclo[7.4.0.0^2,^7]trideca-1(9),2(7),3,5,10,12-hexaen-5-yl]ethan-1-one], the pIC50 is above 8.00.
As to `[2H]C([2H])([2H])c1nnn(C)c1-c1cnc2c3ccc(N4CC(N5CCS(=O)(=O)CC5)C4)nc3n([C@H](c3ccccc3)C3CCOCC3)c2c1` [Example 186, 4-(1-{5-[4-(^2H3)Methyl-1-methyl-1H-1,2,3-triazol-5-yl]-8-[(S)-oxan-4-yl(phenyl)methyl]-3,8,10-triazatricyclo[7.4.0.0^2,^7]trideca-1(9),2(7),3,5,10,12-hexaen-11-yl}azetidin-3-yl)-1λ^6,4-thiomorpholine-1,1-dione], the negative-log IC50 (pIC50) is above 8.00.
Take `[2H]C([2H])([2H])c1nnn(C)c1-c1cnc2c3c(OC)ncc(S(C)(=O)=O)c3n([C@H](c3ccccc3F)C3CCOCC3)c2c1` [Example 51, 8-[(S)-(2-Fluorophenyl)(oxan-4-yl)methyl]-10-methanesulfonyl-13-methoxy-5-[4-(^2H3)methyl-1-methyl-1H-1,2,3-triazol-5-yl]-3,8,12-triazatricyclo[7.4.0.0^2,^7]trideca-1(13),2(7),3,5,9,11-hexaene]: the negative-log IC50 (pIC50) is above 9.00.
Consider `Cc1noc(C)c1-c1ccc2c3ncc(-c4c(C)nnn4C)cc3n([C@H](c3ccccc3)C3CCOCC3)c2n1` [Example 147, 11-(Dimethyl-1,2-oxazol-4-yl)-5-(dimethyl-1H-1,2,3-triazol-5-yl)-8-[(S)-oxan-4-yl(phenyl)methyl]-3,8,10-triazatricyclo[7.4.0.0^2,^7]trideca-1(13),2(7),3,5,9,11-hexaene], for which the negative logarithm of the IC50 (pIC50) was above 8.00.
With `[2H]C([2H])([2H])c1nnn(C)c1-c1cnc2c3c(OCC)ncc(S(C)(=O)=O)c3n(C(c3ncccc3F)C3CCC(F)(F)CC3)c2c1` (centres unmarked) [Example 75, 8-[(4,4-Difluorocyclohexyl)(3-fluoropyridin-2-yl)methyl]-13-ethoxy-10-methanesulfonyl-5-[4-(^2H3)methyl-1-methyl-1H-1,2,3-triazol-5-yl]-3,8,12-triazatricyclo[7.4.0.0^2,^7]trideca-1(13),2(7),3,5,9,11-hexaene], the negative logarithm of the IC50 (pIC50) is above 5.82.
